Consider 24 molecules from US8269026B2, “Lupane derivatives useful for treating HIV” (priority 2008, dated 2012).

Counter-ions that a name gives are not always drawn. Like-named read-outs stand apart in the source and are kept apart here.

The subject of this test is HIV-1 (HIVIIIB) replication in MT2 cell line. The experiment in a line: HIV-1 replication in MT2 cell line with and without 30% human serum (viral RT activity in supernatant). The class given is cell-based. The conditions noted are these: Human immunodeficiency virus 1, MT2 cells, average IC50 if tested more than once. As to the method:
HIV-1 Replication in MT2 cell line with and without 30% human serum: The cells are infected at a Multiciplicity of Infection (MOI) of 0.5 for 3 h and then washed twice with complete media to remove residual virus. Cells are then resuspended at 0.5×10^6/ml in complete medium (RPMI, 10% FBS, 1% sodium pyruvate), and seeded into 96-well plates (6.25×10^4/well). The cells are cultured in the presence or absence of various concentrations of test compounds in serial dilutions for 3 days at 37° C. The test compounds are serially diluted in complete medium supplemented or not with 30% human serum. After 3 days, 100 μL of cultured medium with cells are replaced with 120 μL of freshly diluted test compounds in complete medium containing or not 30% Human serum. The level of HIV-1 replication is determined at days 5 after infection by the presence of viral RT activity in harvested supernatant fluid. The IC50 and IC90 values for the virus replication are determined by using GRAPHPAD PRISM software.
The IC50 of the compounds tested in accordance with the HIV replication activity assay MT2 (HIVIIIB) are represented in Table 1.

[1] abbreviates: with 30% human serum, read-out: MT2 (HIVIIIB) with HS 30% IC50 range.
[2] abbreviates: without human serum, read-out: MT2 (HIVIIIB) IC50 range.

Turning to `CC(C)C1=C2C3CCC4[C@@]5(C)CC[C@H](OC(=O)CC(C)(C)C(=O)O)C(C)(C)C5CC[C@@]4(C)[C@]3(C)CC[C@@]2(NC(=O)C(C)N(C)C)CC1=O` (mixture of isomers) [19-59, 3β-O-(3′,3′-Dimethylsuccinyl)-17β-((RS)-2-dimethylamino-propionamido)-21-oxolup-18-ene], the IC50 under setting [1] is less than 199 nM.

Turning to `CC(C)C1=C2[C@H]3CC[C@@H]4[C@@]5(C)CC[C@H](OC(=O)CC(C)(C)C(=O)O)C(C)(C)[C@@H]5CC[C@@]4(C)[C@]3(C)CC[C@@]2(NC(=O)OC(C)(C)C)CC1=O` [14-1, 3β-O-(3′,3′-Dimethylsuccinyl)-17β-tert-butyloxycarbonylamino-21-oxolup-18-ene], the IC50 under setting [1] was less than 199 nM and the IC50 under setting [2] is less than 199 nM.

On to `CC(C)C1=C2[C@H]3CC[C@@H]4[C@@]5(C)CC[C@H](OC(=O)[C@H]6CCC[C@@H](C(=O)O)C6)C(C)(C)[C@@H]5CC[C@@]4(C)[C@]3(C)CC[C@@]2(NC(=O)OC(C)(C)C)CC1=O` [14-2, 3β-O-(cis-Cyclohexane-3′-carboxylic acid-1′-carboxyl)-17β-[N-tert-butyloxycarbonyl-amino]-21-oxolup-18-ene], for which the IC50 under setting [2] is greater than 1000 nM. Take `CC(C)C1=C2[C@H]3CC[C@@H]4[C@@]5(C)CC[C@H](OC(=O)[C@H]6CC[C@@](C)(C(=O)O)C6(C)C)C(C)(C)[C@@H]5CC[C@@]4(C)[C@]3(C)CC[C@@]2(NC(=O)OC(C)(C)C)CC1=O` [14-3, 3β-O-[(1′R,3′S)-1′,2′,2′-Trimethyl-cyclopentane-3′-carboxylic acid-1′-carboxyl]-17β-[N-tert-butyloxycarbonyl-amino]-21-oxolup-18-ene]: the 50% inhibitory concentration (IC50) under setting [1] is less than 199 nM. As for `CC(C)C1=C2[C@H]3CC[C@@H]4[C@@]5(C)CC[C@H](OC(=O)CC(C)(C)C(=O)O)C(C)(C)[C@@H]5CC[C@@]4(C)[C@]3(C)CC[C@@]2(N)CC1=O` [15-1, 3β-O-(3′,3′-Dimethylsuccinyl)-17β-amino-21-oxolup-18-ene hydrochloride], the IC50 is, setting by setting: under setting [1], less than 199 nM; under setting [2], less than 199 nM.

On to `CC(C)C1=C2C3CCC4[C@@]5(C)CC[C@H](OC(=O)[C@H]6CCC[C@@H](C(=O)O)C6)C(C)(C)C5CC[C@@]4(C)[C@]3(C)CC[C@@]2(N)CC1=O` (stereo partly drawn) [15-2, 3β-O-(cis-Cyclohexane-3′-carboxylic acid-1′-carboxyl)-17β-amino-21-oxolup-18-ene], for which, under setting [1], the IC50 is greater than 1000 nM. As for `CC(C)C1=C2[C@H]3CC[C@@H]4[C@@]5(C)CC[C@H](OC(=O)CC(C)(C)C(=O)O)C(C)(C)[C@@H]5CC[C@@]4(C)[C@]3(C)CC[C@@]2(NC2CCN(C(=O)OC(C)(C)C)CC2)CC1=O` [16-1, 3β-O-(3′,3′-Dimethylsuccinyl)-17β-(1-tert-butyloxycarbonylpiperidine-4-amino]-21-oxolup-18-ene], the IC50 under setting [1] is less than 199 nM and the IC50 under setting [2] was less than 199 nM.

Take `CN[C@@]12CC[C@]3(C)[C@H](CC[C@@H]4[C@@]5(C)CC[C@H](OC(=O)CC(C)(C)C(=O)O)C(C)(C)[C@@H]5CC[C@]43C)C1=C(C(C)C)C(=O)C2` [16-2, 3β-O-(3′,3′-Dimethylsuccinyl)-17β-(methylamino)-21-oxolup-18-ene]: the IC50 under setting [1] was less than 199 nM. Take `CC(C)C1=C2[C@H]3CC[C@@H]4[C@@]5(C)CC[C@H](OC(=O)CC(C)(C)C(=O)O)C(C)(C)[C@@H]5CC[C@@]4(C)[C@]3(C)CC[C@@]2(NC(=O)NCc2ccccc2)CC1=O` [17-1, 3β-O-(3′,3′-Dimethylsuccinyl)-17β[N′-(benzyl)ureido]-21-oxolup-18-ene]: the half-maximal inhibitory concentration (IC50) is less than 199 nM under setting [1] and less than 199 nM under setting [2]. Consider `CCNC(=O)N[C@@]12CC[C@]3(C)[C@H](CC[C@@H]4[C@@]5(C)CC[C@H](OC(=O)CC(C)(C)C(=O)O)C(C)(C)[C@@H]5CC[C@]43C)C1=C(C(C)C)C(=O)C2` [17-2, 3β-O-(3′,3′-Dimethylsuccinyl)-17β-[N′-(ethyl)ureido]-21-oxolup-18-ene], for which the IC50 is less than 199 nM under setting [1] and less than 199 nM under setting [2].

For the molecule `CC(C)C1=C2[C@H]3CC[C@@H]4[C@@]5(C)CC[C@H](OC(=O)CC(C)(C)C(=O)O)C(C)(C)[C@@H]5CC[C@@]4(C)[C@]3(C)CC[C@@]2(NC(=O)Nc2ccccc2)CC1=O` [17-3, 3β-O-(3′,3′-Dimethylsuccinyl)-17β-[N′-(phenyl)ureido]-21-oxolup-18-ene], the IC50 under setting [1] was less than 199 nM and the IC50 under setting [2] is less than 199 nM. Consider `CC(C)NC(=O)N[C@@]12CC[C@]3(C)C(CCC4[C@@]5(C)CC[C@H](OC(=O)CC(C)(C)C(=O)O)C(C)(C)C5CC[C@]43C)C1=C(C(C)C)C(=O)C2` (stereo partly drawn) [17-4, 3β-O-(3′,3′-Dimethylsuccinyl)-17β-[N′-(isopropyl)ureido]-21-oxolup-18-ene], for which the IC50 runs as follows: under setting [1], less than 199 nM; under setting [2], less than 199 nM. With `CC(C)C1=C2C3CCC4[C@@]5(C)CC[C@H](OC(=O)CC(C)(C)C(=O)O)C(C)(C)C5CC[C@@]4(C)[C@]3(C)CC[C@@]2(NC(=O)NC(C)(C)C)CC1=O` (stereo partly drawn) [17-5, 3β-O-(3′,3′-Dimethylsuccinyl)-17β-[N′-(tert-butyl)ureido]-21-oxolup-18-ene], the IC50 runs as follows: under setting [1], less than 199 nM; under setting [2], less than 199 nM. In the case of `CC(C)C1=C2C3CCC4[C@@]5(C)CC[C@H](OC(=O)CC(C)(C)C(=O)O)C(C)(C)C5CC[C@@]4(C)[C@]3(C)CC[C@@]2(NC(=O)Nc2cccnc2)CC1=O` (stereo partly drawn) [17-6, 3β-O-(3′,3′-Dimethylsuccinyl)-17β-[N′-(pyridin-3-yl)ureido]-21-oxolup-18-ene], the IC50 is, setting by setting: under setting [1], less than 199 nM; under setting [2], less than 199 nM.

For the molecule `CC(C)C1=C2C3CCC4[C@@]5(C)CC[C@H](OC(=O)CC(C)(C)C(=O)O)C(C)(C)C5CC[C@@]4(C)[C@]3(C)CC[C@@]2(NC(=O)NC2CCCCC2)CC1=O` (stereo partly drawn) [17-7, 3β-O-(3′,3′-Dimethylsuccinyl)-17β-[N′-(cyclohexyl)ureido]-21-oxolup-18-ene], under setting [1], the IC50 is less than 199 nM. Same read-out and setting: under `CC(C)C1=C2C3CCC4[C@@]5(C)CC[C@H](OC(=O)CC(C)(C)C(=O)O)C(C)(C)C5CC[C@@]4(C)[C@]3(C)CC[C@@]2(NC(=O)NCC2CCCCC2)CC1=O` (stereo partly drawn) [17-8, 3β-O-(3′,3′-Dimethylsuccinyl)-17β-[N′-(cyclohexylmethyl)ureido]-21-oxolup-18-ene] stands less than 199 nM.

For `CC(C)C1=C2[C@H]3CC[C@@H]4[C@@]5(C)CC[C@H](OC(=O)CC(C)(C)C(=O)O)C(C)(C)[C@@H]5CC[C@@]4(C)[C@]3(C)CC[C@@]2(NC(=O)NC2CCN(C(=O)OC(C)(C)C)CC2)CC1=O` [17-9, 3β-O-(3′,3′-Dimethylsuccinyl)-17β[N′-(1-tert-butyloxycarbonyl-piperidin-4-yl)-ureido]-21-oxolup-18-ene], under setting [1], the IC50 is less than 199 nM. On the same count and under the same terms, in the case of `CC(C)C1=C2C3CCC4[C@@]5(C)CC[C@H](OC(=O)CC(C)(C)C(=O)O)C(C)(C)C5CC[C@@]4(C)[C@]3(C)CC[C@@]2(NC(=O)NC2CCNCC2)CC1=O` (stereo partly drawn) [17-10, 3β-O-(3′,3′-Dimethylsuccinyl)-17β-(N′-piperidin-4-yl-ureido)-21-oxolup-18-ene] it was greater than 1000 nM; in that of `CC(=O)N1CCC(NC(=O)N[C@@]23CC[C@]4(C)C(CCC5[C@@]6(C)CC[C@H](OC(=O)CC(C)(C)C(=O)O)C(C)(C)C6CC[C@]54C)C2=C(C(C)C)C(=O)C3)CC1` (stereo partly drawn) [17-11, 3β-O-(3′,3′-Dimethylsuccinyl)-17β-[N′-(1-acetyl-piperidin-4-yl)-ureido]-21-oxolup-18-ene], less than 199 nM. Same read-out and setting: under `CC(C)C1=C2C3CCC4[C@@]5(C)CC[C@H](OC(=O)CC(C)(C)C(=O)O)C(C)(C)C5CC[C@@]4(C)[C@]3(C)CC[C@@]2(NC(=O)NCc2cccnc2)CC1=O` (stereo partly drawn) [17-12, 3β-O-(3′,3′-Dimethylsuccinyl)-17β-[N′-(pyridin-3-ylmethyl)ureido]-21-oxolup-18-ene] stands less than 199 nM. As to `CC(C)C1=C2[C@H]3CC[C@@H]4[C@@]5(C)CC[C@H](OC(=O)CC(C)(C)C(=O)O)C(C)(C)[C@@H]5CC[C@@]4(C)[C@]3(C)CC[C@@]2(NC(=O)N2CCOCC2)CC1=O` [17-13, 3β-O-(3′,3′-Dimethylsuccinyl)-17β-[(morpholine-4-carbonyl)-amino]-21-oxolup-18-ene], the IC50 under setting [1] was less than 199 nM. For the molecule `CC(C)C1=C2[C@H]3CC[C@@H]4[C@@]5(C)CC[C@H](OC(=O)CC(C)(C)C(=O)O)C(C)(C)[C@@H]5CC[C@@]4(C)[C@]3(C)CC[C@@]2(NC(=O)N2CCN(C(=O)OC(C)(C)C)CC2)CC1=O` [17-14, 3β-O-(3′,3′-Dimethylsuccinyl)-17β-[(4-tert-butyloxycarbonyl-piperazine-1-carbonyl)-amino]-21-oxolup-18-ene], the IC50 is less than 199 nM under setting [1] and less than 199 nM under setting [2]. Regarding `CC(C)C1=C2[C@H]3CC[C@@H]4[C@@]5(C)CC[C@H](OC(=O)CC(C)(C)C(=O)O)C(C)(C)[C@@H]5CC[C@@]4(C)[C@]3(C)CC[C@@]2(NC(=O)N2CCNCC2)CC1=O` [17-15, 3β-O-(3′,3′-Dimethylsuccinyl)-17β-[(piperazine-1-carbonyl)-amino]-21-oxolup-18-ene], the IC50 is, setting by setting: under setting [1], less than 199 nM; under setting [2], less than 199 nM.

In the case of `CC(C)C1=C2[C@H]3CC[C@@H]4[C@@]5(C)CC[C@H](OC(=O)CC(C)(C)C(=O)O)C(C)(C)[C@@H]5CC[C@@]4(C)[C@]3(C)CC[C@@]2(NC(=O)N2CCN(C)CC2)CC1=O` [17-16, 3β-O-(3′,3′-Dimethylsuccinyl)-17β-[(4-methyl-piperazine-1-carbonyl)-amino]-21-oxolup-18-ene], under setting [1], the IC50 was less than 199 nM.

For orientation: IC50 means the concentration at which inhibition is half-maximal.
